Experimental data: ChEMBL document CHEMBL1147699, “Studies on the novel alpha-glucosidase inhibitory activity and structure-activity relationships for andrographolide analogues” (Bioorg Med Chem Lett, 2006)
Active and inactive are the calls of the source. The calls are words filed in the database; no cut-off is given here.

Assays:
[1] = target: Maltase-glucoamylase (Homo sapiens) (UniProt O43451); assay: Inhibition of alpha glucosidase at 100 uM
[2] = target: T1, Cytosolic beta-glucosidase (Homo sapiens) (UniProt Q9H227); assay: Inhibition of beta glucosidase at 100 uM
T1 sequence (whole entry): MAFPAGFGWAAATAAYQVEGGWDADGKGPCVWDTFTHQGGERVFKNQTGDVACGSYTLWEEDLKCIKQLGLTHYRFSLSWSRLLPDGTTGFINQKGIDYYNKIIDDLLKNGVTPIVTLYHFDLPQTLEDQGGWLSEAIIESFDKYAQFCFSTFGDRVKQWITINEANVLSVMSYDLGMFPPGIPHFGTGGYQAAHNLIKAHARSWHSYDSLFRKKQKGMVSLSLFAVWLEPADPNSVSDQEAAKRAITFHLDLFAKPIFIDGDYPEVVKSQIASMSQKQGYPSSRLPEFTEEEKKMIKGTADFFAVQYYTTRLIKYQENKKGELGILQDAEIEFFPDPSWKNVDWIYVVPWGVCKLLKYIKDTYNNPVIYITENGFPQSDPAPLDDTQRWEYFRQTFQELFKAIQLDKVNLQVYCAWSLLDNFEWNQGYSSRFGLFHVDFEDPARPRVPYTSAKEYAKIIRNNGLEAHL

Maltase-glucoamylase (Homo sapiens), sequence (O43451 whole entry, looked up): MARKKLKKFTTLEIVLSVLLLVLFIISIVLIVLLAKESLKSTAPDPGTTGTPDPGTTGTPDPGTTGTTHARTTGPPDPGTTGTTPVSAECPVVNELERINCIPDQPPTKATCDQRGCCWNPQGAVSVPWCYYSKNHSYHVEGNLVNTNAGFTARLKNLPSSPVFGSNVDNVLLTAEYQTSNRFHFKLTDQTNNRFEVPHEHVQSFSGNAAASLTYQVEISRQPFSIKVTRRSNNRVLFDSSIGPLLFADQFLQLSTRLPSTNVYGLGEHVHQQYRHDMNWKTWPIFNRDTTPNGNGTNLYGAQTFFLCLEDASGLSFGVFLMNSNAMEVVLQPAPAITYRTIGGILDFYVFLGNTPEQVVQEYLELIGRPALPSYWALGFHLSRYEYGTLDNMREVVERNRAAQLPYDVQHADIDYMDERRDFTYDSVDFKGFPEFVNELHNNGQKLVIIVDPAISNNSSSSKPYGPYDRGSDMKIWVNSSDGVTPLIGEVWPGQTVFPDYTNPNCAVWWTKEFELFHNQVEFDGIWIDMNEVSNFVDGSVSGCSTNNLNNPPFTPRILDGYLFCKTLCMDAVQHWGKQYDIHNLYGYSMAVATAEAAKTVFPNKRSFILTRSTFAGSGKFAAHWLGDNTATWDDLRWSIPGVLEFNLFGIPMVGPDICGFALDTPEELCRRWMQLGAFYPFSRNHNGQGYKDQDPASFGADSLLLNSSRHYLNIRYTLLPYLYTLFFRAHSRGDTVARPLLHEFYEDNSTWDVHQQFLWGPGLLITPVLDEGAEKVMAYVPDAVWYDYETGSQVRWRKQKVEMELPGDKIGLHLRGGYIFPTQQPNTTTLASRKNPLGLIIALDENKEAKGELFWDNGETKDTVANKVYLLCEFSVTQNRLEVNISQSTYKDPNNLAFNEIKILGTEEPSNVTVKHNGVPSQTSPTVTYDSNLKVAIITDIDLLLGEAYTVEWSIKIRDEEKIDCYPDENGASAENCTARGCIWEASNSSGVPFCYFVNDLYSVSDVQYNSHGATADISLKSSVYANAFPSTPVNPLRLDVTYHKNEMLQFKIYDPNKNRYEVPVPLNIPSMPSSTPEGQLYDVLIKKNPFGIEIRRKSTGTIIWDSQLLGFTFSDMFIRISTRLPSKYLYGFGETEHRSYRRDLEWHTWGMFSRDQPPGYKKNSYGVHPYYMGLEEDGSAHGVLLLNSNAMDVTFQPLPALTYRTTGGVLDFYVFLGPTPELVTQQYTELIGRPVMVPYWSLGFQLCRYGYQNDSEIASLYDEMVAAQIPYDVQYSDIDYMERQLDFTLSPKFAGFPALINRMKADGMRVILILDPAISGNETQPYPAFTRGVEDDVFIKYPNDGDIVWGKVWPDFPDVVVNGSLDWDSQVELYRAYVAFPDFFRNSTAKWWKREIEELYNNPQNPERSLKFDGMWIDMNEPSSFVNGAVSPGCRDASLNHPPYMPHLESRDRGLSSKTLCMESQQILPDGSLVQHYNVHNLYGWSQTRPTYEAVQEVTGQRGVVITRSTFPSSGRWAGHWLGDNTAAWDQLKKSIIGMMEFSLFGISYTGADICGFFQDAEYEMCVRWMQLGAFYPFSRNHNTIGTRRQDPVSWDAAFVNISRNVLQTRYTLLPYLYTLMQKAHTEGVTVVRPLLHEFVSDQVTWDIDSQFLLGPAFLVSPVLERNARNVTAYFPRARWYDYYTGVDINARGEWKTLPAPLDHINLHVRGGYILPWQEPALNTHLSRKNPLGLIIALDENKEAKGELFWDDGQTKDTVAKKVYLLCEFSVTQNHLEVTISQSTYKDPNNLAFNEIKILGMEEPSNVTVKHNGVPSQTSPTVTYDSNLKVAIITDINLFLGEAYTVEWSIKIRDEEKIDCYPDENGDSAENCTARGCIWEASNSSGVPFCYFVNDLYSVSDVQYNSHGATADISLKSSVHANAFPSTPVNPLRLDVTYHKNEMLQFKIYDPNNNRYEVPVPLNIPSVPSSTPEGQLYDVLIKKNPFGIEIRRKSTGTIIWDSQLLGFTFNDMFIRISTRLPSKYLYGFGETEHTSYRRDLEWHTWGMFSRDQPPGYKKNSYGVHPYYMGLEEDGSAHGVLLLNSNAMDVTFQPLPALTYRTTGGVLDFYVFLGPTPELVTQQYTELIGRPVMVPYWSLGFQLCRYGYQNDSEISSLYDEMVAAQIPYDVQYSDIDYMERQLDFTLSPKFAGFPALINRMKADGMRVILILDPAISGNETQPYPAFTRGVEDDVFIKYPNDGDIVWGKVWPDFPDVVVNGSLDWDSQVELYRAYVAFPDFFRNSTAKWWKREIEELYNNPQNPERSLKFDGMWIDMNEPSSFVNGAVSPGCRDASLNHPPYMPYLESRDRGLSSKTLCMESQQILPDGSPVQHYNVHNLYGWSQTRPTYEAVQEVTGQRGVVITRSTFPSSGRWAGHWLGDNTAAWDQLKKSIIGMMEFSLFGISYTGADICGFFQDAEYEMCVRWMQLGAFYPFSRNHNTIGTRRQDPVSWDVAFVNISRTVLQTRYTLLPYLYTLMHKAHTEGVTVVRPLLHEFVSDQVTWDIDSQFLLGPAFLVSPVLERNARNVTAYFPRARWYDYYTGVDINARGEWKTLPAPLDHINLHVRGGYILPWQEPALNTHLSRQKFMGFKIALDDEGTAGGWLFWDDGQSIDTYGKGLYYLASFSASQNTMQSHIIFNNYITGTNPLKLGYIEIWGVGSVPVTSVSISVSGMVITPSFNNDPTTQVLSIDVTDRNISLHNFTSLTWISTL

## C=C1CC[C@@H]2[C@]3(C)COC(CCCCCC)O[C@@H]3CC[C@@]2(C)[C@@H]1C/C=C1/C(=O)OC[C@H]1O (stereo not given in full)
[1]
  inhibition: 20.1%
[2]
  inhibition: inactive

## CC(C)=C1C=C(/C=C/[C@@H]2[C@@]3(CC[C@@H]4[C@](C)(CO)[C@H](O)CC[C@]42C)CO3)C(=O)O1
[1]
  inhibition: inactive

## C=C1CC[C@@H]2[C@](C)(CO)[C@H](O)CC[C@@]2(C)[C@@H]1CCC1C(=O)OC[C@H]1O (stereo not given in full)
[1]
  inhibition: 34.2%
[2]
  inhibition: inactive

## C=C1CC[C@@H]2[C@](C)(CO)[C@H](O)CC[C@@]2(C)[C@@H]1/C=C/C1=CC(=C/CCC)/OC1=O
[1]
  inhibition: 43.5%
[2]
  inhibition: inactive

## C=C1CC[C@@H]2[C@]3(C)COC(CCCC)O[C@@H]3CC[C@@]2(C)[C@@H]1C/C=C1/C(=O)OC[C@H]1O (stereo not given in full)
[1]
  inhibition: inactive
[2]
  inhibition: inactive

## C=C1CC[C@@H]2[C@](C)(CO)[C@H](O)CC[C@@]2(C)[C@@H]1/C=C/C1=CC(=C/c2ccc(F)cc2)/OC1=O
[1]
  inhibition: inactive

## C=C1CC[C@@H]2[C@]3(C)COC(c4ccccc4)O[C@@H]3CC[C@@]2(C)[C@@H]1C/C=C1/C(=O)OC[C@H]1O (stereo not given in full)
[1]
  inhibition: 48.9%

## C=C1CC[C@@H]2[C@](C)(CO)[C@H](O)CC[C@@]2(C)[C@@H]1/C=C/C1=CCOC1=O
[1]
  inhibition: 16.5%
[2]
  inhibition: inactive

## C=C1CC[C@@H]2[C@](C)(CO)[C@H](O)CC[C@@]2(C)[C@@H]1/C=C/C1=CC(=C/C=C(/C)CCC=C(C)C)/OC1=O
[1]
  inhibition: inactive

## C=C1CC[C@@H]2[C@]3(C)COC(c4ccccc4OC)O[C@@H]3CC[C@@]2(C)[C@@H]1C/C=C1/C(=O)OC[C@H]1O (stereo not given in full)
[1]
  inhibition: 5.5%

## C=C1CC[C@@H]2[C@]3(C)COC(c4ccc(Cl)cc4)O[C@@H]3CC[C@@]2(C)[C@@H]1C/C=C1/C(=O)OC[C@H]1O (stereo not given in full)
[1]
  inhibition: inactive
[2]
  inhibition: inactive

## C=C1CC[C@@H]2[C@]3(C)COC(C)(C)O[C@@H]3CC[C@@]2(C)[C@@H]1C/C=C1/C(=O)OC[C@H]1O
[1]
  inhibition: inactive
[2]
  inhibition: inactive

## C=C1CC[C@@H]2[C@](C)(CO)[C@H](O)CC[C@@]2(C)[C@@H]1/C=C/C1=CC(=C(C)C)OC1=O
[1]
  inhibition: 17.1%
[2]
  inhibition: inactive

## COc1ccc(/C=C2C=C(/C=C/[C@@H]3[C@@]4(CC[C@@H]5[C@](C)(CO)[C@H](O)CC[C@]53C)CO4)C(=O)O/2)cc1
[1]
  inhibition: 37.7%

## C=C1CC[C@@H]2[C@]3(C)COC(c4cccc(Br)c4)O[C@@H]3CC[C@@]2(C)[C@@H]1C/C=C1/C(=O)OC[C@H]1O (stereo not given in full)
[1]
  inhibition: 49.6%

## C=C1CC[C@@H]2[C@](C)(CO)[C@H](O)CC[C@@]2(C)/C1=C/C=C1\C=COC1=O
[1]
  inhibition: inactive
[2]
  inhibition: inactive

## C=C1CC[C@@H]2[C@](C)(CO)[C@H](O)CC[C@@]2(C)[C@@H]1/C=C/C1=CC(=C/c2cccc(Br)c2)/OC1=O
[1]
  inhibition: 16.7%

## C=C1CC[C@@H]2[C@]3(C)COC(c4cc(OC)c(OC)cc4OC)O[C@@H]3CC[C@@]2(C)[C@@H]1C/C=C1/C(=O)OC[C@H]1O (stereo not given in full)
[1]
  inhibition: 14.5%

## C=C1CC[C@@H]2[C@](C)(CO)[C@H](O)CC[C@@]2(C)[C@@H]1/C=C/C1=CC(=C/C)/OC1=O
[1]
  inhibition: 15.1%
[2]
  inhibition: inactive

## C=C1CC[C@@H]2[C@]3(C)COCO[C@@H]3CC[C@@]2(C)[C@@H]1C/C=C1/C(=O)OC[C@H]1O
[1]
  inhibition: inactive
[2]
  inhibition: inactive

## C[C@]1(CO)[C@H]2CC[C@@]3(CO3)[C@@H](/C=C/C3=CC(=C/C=C/c4ccccc4)/OC3=O)[C@]2(C)CC[C@H]1O
[1]
  inhibition: 49.2%

## C=C1CC[C@@H]2[C@](C)(CO)[C@H](O)CC[C@@]2(C)[C@@H]1/C=C/C1=CC(=C/c2ccc(OC)cc2)/OC1=O
[1]
  inhibition: 100%

## C=C1CC[C@@H]2[C@](C)(CO)[C@H](O)CC[C@@]2(C)[C@@H]1/C=C/C1=CC(=C/c2ccc(Cl)cc2)/OC1=O
[1]
  inhibition: inactive

## C=C1CC[C@@H]2[C@](C)(CO)[C@H](O)CC[C@@]2(C)[C@@H]1/C=C/C1=CC(=C/C=C/c2ccccc2)/OC1=O
[1]
  inhibition: 84.3%

## C[C@]1(CO)[C@H]2CC[C@@]3(CO3)[C@@H](/C=C/C3=CCOC3=O)[C@]2(C)CC[C@H]1O
[1]
  inhibition: inactive

## C=C1CC[C@@H]2[C@]3(C)COC(c4ccc(OC)cc4)O[C@@H]3CC[C@@]2(C)[C@@H]1C/C=C1/C(=O)OC[C@H]1O (stereo not given in full)
[1]
  inhibition: 13.2%

## C=C1CC[C@@H]2[C@]3(C)COC(c4ccc(F)cc4)O[C@@H]3CC[C@@]2(C)[C@@H]1C/C=C1/C(=O)OC[C@H]1O (stereo not given in full)
[1]
  inhibition: 26.2%

## C=C1CC[C@@H]2[C@](C)(CO)[C@H](O)CC[C@@]2(C)[C@@H]1C/C=C1/C(=O)OC[C@H]1O
[1]
  inhibition: inactive
[2]
  inhibition: inactive
